Source: US6090821A, “Substituted quinolin-2 (1H)-ones useful as HIV reverse transcriptase inhibitors” (E. I. DuPont de Nemours and Company, priority 1999, dated 2000)
Converted amounts (≈) assume the structure as drawn.

Tested on: HIV-1 (RF)
Experiment: HIV RNA assay: microplate based compound evaluation in HIV-1 infected MT-2 cells
Assay type: cell-based
Details: Human immunodeficiency virus 1, MT2, 72 h; HIV-1 (RF) infected MT-2 cells, 3 days at 37° C.; virus dilutions selected to give this ddC value (standardization of inoculum); read-out: IC90 value (concentration of compound required to reduce the HIV RNA level by 90%)
Protocol: Plasmid pDAB 72 containing both gag and pol sequences of BH10 (bp 113-1816) cloned into PTZ 19R was prepared according to Erickson-Viitanen et al. AIDS Research and Human Retroviruses 1989, 5, 577. The plasmid was linearized with Bam HI prior to the generation of in vitro RNA transcripts using the Riboprobe Gemini system II kit (Promega) with T7 RNA polymerase. Synthesized RNA was purified by treatment with RNase free DNAse (Promega), phenol-chloroform extraction, and ethanol precipitation. RNA transcripts were dissolved in water, and stored at -70° C. The concentration of RNA was determined from the A260.
Biotinylated capture probes were purified by HPLC after synthesis on an Applied Biosystems (Foster City, Calif.) DNA synthesizer by addition of biotin to the 5' terminal end of the oligonucleotide, using the biotin-phosphoramidite reagent of Cocuzza, Tet. Lett. 1989, 30, 6287. […]
MT-2 and MT-4 cells were maintained in RPMI 1640 supplemented with 5% fetal calf serum (FCS) for MT-2 cells or 10% FCS for MT-4 cells, 2 mM L-glutamine and 50 μg/mL gentamycin, all from Gibco. […] Infectious titers of HIV-1(RF) stocks were 1-3×10^7 PFU (plaque forming units)/mL as measured by plaque assay on MT-2 cells (see below). […]

Compound `Nc1ccn([C@H]2CC[C@@H](CO)O2)c(=O)n1` [ddC, 2',3'-dideoxycytidine] has an IC90 of 0.2 µg/mL (≈ 0.947 µM).
